In patent US20230081390A1, “INHIBITORS OF RAF KINASES” (Kinnate Biopharma Inc., priority 2019, published 2023):
pIC50: −log10 of the molar value.

Biological target: human RAF1 (Homo sapiens, UniProt P04049)
Assay: Protein kinase assay (33P-ATP filter binding), human RAF1, 10-dose IC50
Assay type: biochemical
Conditions: MEK1 (K97R) substrate 3 micromolar, ATP 10 micromolar, read-out: RAF-1 IC50
Protocol: In brief, for each reaction, kinase and substrate were mixed in a buffer containing 20 mM HEPES (pH 7.5), 10 mM MgCl2, 1 mM EGTA, 0.02% Brij35, 0.02 mg/mL BSA, 0.1 mM Na3VO4, 2 mM DTT, and […]. All compounds were solubilized in DMSO. Compounds were then added to each reaction mixture via acoustic dispense using an ECHO 550 nanoliter dispenser. For human RAF1 testing, human MEK1 (K97R) was used as a substrate at a concentration of 3 micromolar, with a final ATP concentration of 10 micromolar. […] Reactions were carried out at room temperature for 2 hr and spotted onto P81 ion exchange cellulose chromatography paper (Reaction Biology). […] The percent remaining kinase activity relative to a vehicle-containing (DMSO) kinase reaction was calculated for each kinase/inhibitor pair. IC50 values were calculated using Prism 5 (GraphPad).

human RAF1, sequence (P04049 whole entry): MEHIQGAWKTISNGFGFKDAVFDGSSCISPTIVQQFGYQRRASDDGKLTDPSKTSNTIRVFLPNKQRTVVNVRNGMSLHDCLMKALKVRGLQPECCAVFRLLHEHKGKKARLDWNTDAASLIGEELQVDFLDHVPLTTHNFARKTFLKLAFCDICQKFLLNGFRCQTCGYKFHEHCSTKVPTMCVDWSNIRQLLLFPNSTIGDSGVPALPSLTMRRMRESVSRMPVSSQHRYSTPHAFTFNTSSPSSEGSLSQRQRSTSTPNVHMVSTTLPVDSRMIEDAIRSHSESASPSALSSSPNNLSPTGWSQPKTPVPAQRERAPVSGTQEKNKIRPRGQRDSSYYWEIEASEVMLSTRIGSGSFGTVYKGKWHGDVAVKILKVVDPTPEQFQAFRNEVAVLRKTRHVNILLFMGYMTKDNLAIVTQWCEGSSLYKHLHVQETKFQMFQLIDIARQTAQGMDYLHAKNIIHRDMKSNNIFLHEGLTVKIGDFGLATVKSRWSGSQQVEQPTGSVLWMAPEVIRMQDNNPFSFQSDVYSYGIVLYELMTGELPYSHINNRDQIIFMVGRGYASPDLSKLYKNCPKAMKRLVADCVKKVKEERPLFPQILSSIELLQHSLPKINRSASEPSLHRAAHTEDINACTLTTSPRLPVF

Row | Compound | pIC50
1 | Cc1cc(F)c(NC(=O)N2CCCC(F)(F)C2)cc1-c1cc(OCCO)nc(N2CCOCC2)c1 [Example 24, 3,3-difluroo-N-(2-fluoro-5-(2-(2-hydroxyethoxy)-6-morpholinopyridin-4-yl)-4-methylphenyl)piperidine-1-carboxamide] | 7.00 to 8.00
2 | Cc1ccc(NC(=O)N2CCC(CC(F)(F)F)C2)cc1-c1cc(OC[C@@H](O)CO)nc(N2CCOCC2)c1 (stereo partly drawn) [Example 179, N-(3-(2-((S)-2,3-dihydroxypropoxy)-6-morpholinopyridin-4-yl)-4-methylphenyl)-3-(2,2,2-trifluoroethyl)pyrrolidine-1-carboxamide] | > 8.00
3 | Cc1cc(F)c(NC(=O)N2C[C@H](C(F)(F)F)C[C@@H]2C)cc1-c1cc(OCCO)nc(N2CCOCC2)c1 (single isomer, unassigned) [Example 61, (cis)-N-[2-fluoro-5-[2-(2-hydroxyethoxy)-6-(morpholin-4-yl)pyridin-4-yl]-4-methylphenyl]-2-methyl-4-(trifluoromethyl)pyrrolidine-1-carboxamide] | > 8.00
4 | Cc1ccc(NC(=O)Nc2cnn(CC(F)(F)F)c2)cc1-c1cc(OCCO)nc(N2CCOCC2)c1 [Example 135, 1-[3-[2-(2-hydroxyethoxy)-6-(morpholin-4-yl)pyridin-4-yl]-4-methylphenyl]-3-[1-(2,2,2-trifluoroethyl)pyrazol-4-yl]urea] | > 8.00
5 | Cc1cc(F)c(NC(=O)N2CC[C@]3(C2)CC(F)(F)C3(F)F)cc1-c1cc(OCCO)nc(N2CCOCC2)c1 (single isomer, unassigned) [Example 105] | > 8.00
6 | Cc1ccc(NC(=O)N2CC/C(=C\C(F)(F)F)C2)cc1-c1cc(OCCO)nc(N2CCOCC2)c1 [Example 136, (3E)-N-[3-[2-(2-hydroxyethoxy)-6-(morpholin-4-yl)pyridin-4-yl]-4-methylphenyl]-3-(2,2,2-trifluoroethylidene)pyrrolidine-1-carboxamide] | > 8.00
7 | Cc1cc(F)c(NC(=O)N2CC[C@@H](C(F)(F)F)C2)cc1-c1cc(OCCO)nc(N2CCOC[C@H]2C)c1 (single isomer, unassigned) [Example 29] | > 8.00
8 | Cc1cc(F)c(NC(=O)N2CCC3(COC3)C2)cc1-c1cc(OCCO)nc(N2CCOCC2)c1 [Example 41, N-[2-fluoro-5-[2-(2-hydroxyethoxy)-6-(morpholin-4-yl)pyridin-4-yl]-4-methylphenyl]-2-oxa-6-azaspiro[3.4]octane-6-carboxamide] | 7.00 to 8.00
9 | Cc1cc(F)c(NC(=O)N2CCCC3C2C3C(F)(F)F)cc1-c1cc(OCCO)nc(N2CCOCC2)c1 (single isomer, unassigned) [Example 111, N-[2-fluoro-5-[2-(2-hydroxyethoxy)-6-(morpholin-4-yl)pyridin-4-yl]-4-methylphenyl]-7-(trifluoromethyl)-2-aabicyclo[4.1.0]heptane-2-carboxamide] | > 8.00
10 | Cc1cc(F)c(NC(=O)N2CCCC3(COC3)C2)cc1-c1cc(OCCO)nc(N2CCOCC2)c1 [Example 27, N-[2-fluoro-5-[2-(2-hydroxyethoxy)-6-(morpholin-4-yl)pyridin-4-yl]-4-methylphenyl]-2-oxa-6-azaspiro[3.5]nonane-6-carboxamide] | 7.00 to 8.00
11 | Cc1cc(F)c(NC(=O)NCC2(C(F)(F)F)CCC2)cc1-c1cc(OCCO)nc(N2CCOCC2)c1 [Example 49, 1-[2-fluoro-5-[2-(2-hydroxyethoxy)-6-(morpholin-4-yl)pyridin-4-yl]-4-methylphenyl]-3-[[1-(trifluoromethyl)cyclobutyl]methyl]urea] | > 8.00
12 | Cc1cc(F)c(NC(=O)N2CCC(C)(C)C2)cc1-c1cc(OCCO)nc(N2CCOCC2)c1 [Example 19, N-[2-fluoro-5-[2-(2-hydroxyethoxy)-6-(morpholin-4-yl)pyridin-4-yl]-4-methylphenyl]-3,3-dimethylpyrrolidine-1-carboxamide] | > 8.00
13 | Cc1ccc(NC(=O)N2CC[C@@H](CC(F)(F)F)C2)cc1-c1cncc(N2CCOCC2)c1 [Example 226, (3S)-N-[4-methyl-3-[5-(morpholin-4-yl)pyridin-3-yl]phenyl]-3-(2,2,2-trifluoroethyl)pyrrolidine-1-carboxamide] | > 8.00
14 | Cc1cc(F)c(NC(=O)N2CC[C@]3(C2)CC3(F)F)cc1-c1cc(OCCO)nc(N2CCOCC2)c1 (single isomer, unassigned) [Example 62] | > 8.00
15 | Cc1ccc(NC(=O)N2CC[C@@H](CC(F)(F)F)C2)cc1-c1cc(O[C@H](C)[C@@H](C)O)nc(N2CCOCC2)c1 [Example 233, (S)-N-(3-(2-(((2R,3R)-3-hydroxybutan-2-yl)oxy)-6-morpholinopyridin-4-yl)-4-methylphenyl)-3-(2,2,2-trifluoroethyl)pyrrolidine-1-carboxamide] | > 8.00
16 | Cc1cc(F)c(NC(=O)N2CCC3(CCC3)C2)cc1-c1cc(OCCO)nc(N2CCOCC2)c1 [Example 26, N-[2-fluoro-5-[2-(2-hydroxyethoxy)-6-(morpholin-4-yl)pyridin-4-yl]-4-methylphenyl]-6-azaspiro[3.4]octane-6-carboxamide] | > 8.00
17 | Cc1ccc(NC(=O)N2CCC(CC(F)(F)F)C2)cc1-c1cc(OC[C@H](O)CO)nc(N2CCOCC2)c1 (stereo partly drawn) [Example 180, N-(3-(2-((R)-2,3-dihydroxypropoxy)-6-morpholinopyridin-4-yl)-4-methylphenyl)-3-(2,2,2-trifluoroethyl)pyrrolidine-1-carboxamide] | > 8.00

Continued, values first:

Row | pIC50 | Compound
18 | > 8.00 | Cc1cc(F)c(NC(=O)N2CCO[C@@H](C(C)(F)F)C2)cc1-c1cc(OCCO)nc(N2CCOCC2)c1 (single isomer, unassigned) [Example 59]
19 | > 8.00 | Cc1cc(F)c(NC(=O)N2CC[C@H](CC(F)(F)F)C2)cc1-c1cc(OC[C@@H](C)O)nc(N2CCOCC2)c1 (single isomer, unassigned) [Example 183]
20 | > 8.00 | Cc1cc(F)c(NC(=O)N2CCC(C(C)C(F)(F)F)C2)cc1-c1cc(OCCO)nc(N2CCOCC2)c1 (single isomer, unassigned) [Example 100, N-[2-fluoro-5-[2-(2-hydroxyethoxy)-6-(morpholin-4-yl)pyridin-4-yl]-4-methylphenyl]-3-(1,1,1-trifluoropropan-2-yl)pyrrolidine-1-carboxamide]
21 | > 8.00 | Cc1cc(F)c(NC(=O)N2CCOC(C(F)(F)F)C2C)cc1-c1cc(OCCO)nc(N2CCOCC2)c1 (single isomer, unassigned) [Example 112]
22 | > 8.00 | Cc1ccc(NC(=O)N2CCC(CC(F)(F)F)C2)cc1-c1cc(OC2CCOCC2)nc(N2CCOCC2)c1 (centres unmarked) [Example 187, N-(4-methyl-3-(2-morpholino-6-((tetrahydro-2H-pyran-4-yl)oxy)pyridin-4-yl)phenyl)-3-(2,2,2-trifluoroethyl)pyrrolidine-1-carboxamide]
23 | > 8.00 | Cc1ccc(NC(=O)N2CC[C@@H](OC(F)(F)F)C2)cc1-c1cnc(OC2CCOCC2)c(N2CCOCC2)c1 [Example 128, (3R)-N-[4-methyl-3-[5-(morpholin-4-yl)-6-(oxan-4-yloxy)pyridin-3-yl]phenyl]-3-(trifluoromethoxy)pyrrolidine-1-carboxamide]
24 | > 8.00 | Cc1cc(F)c(NC(=O)N2CC[C@H](C3CC3)C2)cc1-c1cc(OCCO)nc(N2CCOCC2)c1 (single isomer, unassigned) [Example 47]
25 | > 8.00 | Cc1cc(F)c(NC(=O)N2CCC(F)(F)C(C(F)(F)F)C2)cc1-c1cc(OCCO)nc(N2CCOCC2)c1 (centres unmarked) [Example 104, 4,4-difluoro-N-[2-fluoro-5-[2-(2-hydroxyethoxy)-6-(morpholin-4-yl)pyridin-4-yl]-4-methylphenyl]-3-(trifluoromethyl)piperidine-1-carboxamide]
26 | > 8.00 | Cc1cc(F)c(NC(=O)N2CCO[C@@H](C(F)(F)F)C2)cc1-c1cnc(OC2CCOCC2)c(N2CCOCC2)c1 [Example 87, (2R)-N-[2-fluoro-4-methyl-5-[5-(morpholin-4-yl)-6-(oxan-4-yloxy)pyridin-3-yl]phenyl]-2-(trifluoromethyl)morpholine-4-carboxamide]
27 | > 8.00 | Cc1ccc(NC(=O)N2CC[C@@H](CC(F)(F)F)C2)cc1-c1cnc(OC2CCOCC2)c(N2CCOCC2)c1 (single isomer, unassigned) [Example 193]
28 | > 8.00 | Cc1cc(F)c(NC(=O)N2C[C@@H](N)C[C@@H](C(F)(F)F)C2)cc1-c1cc(OCCO)nc(N2CCOCC2)c1 [Example 40, (3S,5R)-3-amino-N-[2-fluoro-5-[2-(2-hydroxyethoxy)-6-(morpholin-4-yl)pyridin-4-yl]-4-methylphenyl]-5-(trifluoromethyl)piperidine-1-carboxamide]
29 | > 8.00 | Cc1ccc(NC(=O)N2CC[C@@H](C(F)(F)F)C2)cc1-c1cnc(OC2CCOCC2)c(N2CCOCC2)c1 (single isomer, unassigned) [Example 119]
30 | 7.00 to 8.00 | Cc1cc(F)c(NC(=O)N2CCC(C(F)(F)F)C2C)cc1-c1cc(OCCO)nc(N2CCOCC2)c1 (single isomer, unassigned) [Example 65, N-[2-fluoro-5-[2-(2-hydroxyethoxy)-6-(morpholin-4-yl)pyridin-4-yl]-4-methylphenyl]-2-methyl-3-(trifluoromethyl)pyrrolidine-1-carboxamide]
31 | > 8.00 | Cc1cc(F)c(NC(=O)N2CCO[C@@H](C(C)(F)F)C2)cc1-c1cc(OCCO)nc(N2CCOCC2)c1 (single isomer, unassigned) [Example 58]
32 | > 8.00 | Cc1cc(F)c(NC(=O)N2CC[C@H](CC(F)(F)F)C2)cc1-c1cc(O[C@H](C)CO)nc(N2CCOCC2)c1 (single isomer, unassigned) [Example 184]
